According to PubChem BioAssay AID1919014 (Molecular Pharmacology Branch, DTP, NCI, 2023):

Test system: NCI-H1341 complex spheroids, percent test/control
Assay: Anticancer human tumor NCI-H1341 cell line growth inhibition [AhR];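 note: spheroids exposed to agents for seven days before readout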
Details: for IC50: curve of first compound; for viability, T/C: stronger effect = lower value
In short: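 Agents were dosed in half-log steps down from roughly clinical Cmax, or from 10 microM where Cmax was unknown, alone and with AhR antagonists. Read-out: percent test/control growth of tumor spheroids containing HUVEC and MSC stromal cells.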

Which results are given for `CC(C)CC(NC(=O)C(Cc1ccccc1)NC(=O)c1cnccn1)B(O)O` (stereo not given) + Cc1ccccc1N=Nc1ccc(NC(=O)c2ccnn2C)c(C)c1?
IC50 (second compound 0.1 µM): 5.09 nM; IC50 (second compound 0.316 µM): 5.12 nM; IC50 (second compound 1 µM): 4.96 nM; IC50 (second compound 3.16 µM): 4.3 nM; IC50 (second compound 10 µM): 3.45 nM; viability, T/C (second compound 0.1 µM, first compound 0.000949 µM): 116%; viability, T/C (second compound 0.1 µM, first compound 0.003 µM): 90.2%; viability, T/C (second compound 0.1 µM, first compound 0.00949 µM): 2.67%; viability, T/C (second compound 0.1 µM, first compound 0.03 µM): 0.15%; viability, T/C (second compound 0.1 µM, first compound 0.0949 µM): 0.06%; viability, T/C (second compound 0.1 µM, first compound 0.3 µM): 0.19%; viability, T/C (second compound 0.316 µM, first compound 0.000949 µM): 92.6%; viability, T/C (second compound 0.316 µM, first compound 0.003 µM): 91.1%; viability, T/C (second compound 0.316 µM, first compound 0.00949 µM): 2.6%; viability, T/C (second compound 0.316 µM, first compound 0.03 µM): 0.07%; viability, T/C (second compound 0.316 µM, first compound 0.0949 µM): 0.07%; viability, T/C (second compound 0.316 µM, first compound 0.3 µM): 0.15%; viability, T/C (second compound 1 µM, first compound 0.000949 µM): 83%; viability, T/C (second compound 1 µM, first compound 0.003 µM): 89.7%; viability, T/C (second compound 1 µM, first compound 0.00949 µM): 3.18%; viability, T/C (second compound 1 µM, first compound 0.03 µM): 0.12%; viability, T/C (second compound 1 µM, first compound 0.0949 µM): 0.08%; viability, T/C (second compound 1 µM, first compound 0.3 µM): 0.18%; viability, T/C (second compound 3.16 µM, first compound 0.000949 µM): 85%; viability, T/C (second compound 3.16 µM, first compound 0.003 µM): 71.6%; viability, T/C (second compound 3.16 µM, first compound 0.00949 µM): 2.5%; viability, T/C (second compound 3.16 µM, first compound 0.03 µM): 0.06%; viability, T/C (second compound 3.16 µM, first compound 0.0949 µM): 0.09%; viability, T/C (second compound 3.16 µM, first compound 0.3 µM): 0.2%; viability, T/C (second compound 10 µM, first compound 0.000949 µM): 50.5%; viability, T/C (second compound 10 µM, first compound 0.003 µM): 62.5%; viability, T/C (second compound 10 µM, first compound 0.00949 µM): 2.63%; viability, T/C (second compound 10 µM, first compound 0.03 µM): 0.39%; viability, T/C (second compound 10 µM, first compound 0.0949 µM): 0.18%; viability, T/C (second compound 10 µM, first compound 0.3 µM): 0.31%

Which results are given for `COc1cc(Nc2ncc3c(n2)-c2ccc(Cl)cc2C(c2c(F)cccc2OC)=NC3)ccc1C(=O)O` + Cc1ccccc1N=Nc1ccc(NC(=O)c2ccnn2C)c(C)c1?
IC50 (second compound 0.1 µM): < 31.6 nM; IC50 (second compound 0.316 µM): < 31.6 nM; IC50 (second compound 1 µM): 249 nM; IC50 (second compound 3.16 µM): < 31.6 nM; IC50 (second compound 10 µM): < 31.6 nM; viability, T/C (second compound 0.1 µM, first compound 0.0316 µM): 48.9%; viability, T/C (second compound 0.1 µM, first compound 0.1 µM): 45.1%; viability, T/C (second compound 0.1 µM, first compound 0.316 µM): 42%; viability, T/C (second compound 0.1 µM, first compound 1 µM): 31.9%; viability, T/C (second compound 0.1 µM, first compound 3.16 µM): 29.9%; viability, T/C (second compound 0.1 µM, first compound 10 µM): 25.6%; viability, T/C (second compound 0.316 µM, first compound 0.0316 µM): 50.6%; viability, T/C (second compound 0.316 µM, first compound 0.1 µM): 46.3%; viability, T/C (second compound 0.316 µM, first compound 0.316 µM): 48.5%; viability, T/C (second compound 0.316 µM, first compound 1 µM): 39.2%; viability, T/C (second compound 0.316 µM, first compound 3.16 µM): 30%; viability, T/C (second compound 0.316 µM, first compound 10 µM): 25.2%; viability, T/C (second compound 1 µM, first compound 0.0316 µM): 56.2%; viability, T/C (second compound 1 µM, first compound 0.1 µM): 55.3%; viability, T/C (second compound 1 µM, first compound 0.316 µM): 48.3%; viability, T/C (second compound 1 µM, first compound 1 µM): 40%; viability, T/C (second compound 1 µM, first compound 3.16 µM): 31.4%; viability, T/C (second compound 1 µM, first compound 10 µM): 26%; viability, T/C (second compound 3.16 µM, first compound 0.0316 µM): 47.7%; viability, T/C (second compound 3.16 µM, first compound 0.1 µM): 48.1%; viability, T/C (second compound 3.16 µM, first compound 0.316 µM): 39.5%; viability, T/C (second compound 3.16 µM, first compound 1 µM): 40.9%; viability, T/C (second compound 3.16 µM, first compound 3.16 µM): 25.3%; viability, T/C (second compound 3.16 µM, first compound 10 µM): 26.8%; viability, T/C (second compound 10 µM, first compound 0.0316 µM): 44%; viability, T/C (second compound 10 µM, first compound 0.1 µM): 43.9%; viability, T/C (second compound 10 µM, first compound 0.316 µM): 37.3%; viability, T/C (second compound 10 µM, first compound 1 µM): 38.2%; viability, T/C (second compound 10 µM, first compound 3.16 µM): 27.3%; viability, T/C (second compound 10 µM, first compound 10 µM): 28.6%
